The source of these data is US20240308987A1, “SMALL MOLECULE INHIBITOR AGAINST NASOPHARYNGEAL CARCINOMA, PREPARATION METHOD AND APPLICATION THEREOF” (SHENZHEN BAY LABORATORY, priority 2021, published 2024).

Each structure is given as a SMILES string. Bounds are passed on as bounds.

In this experiment the test system is C666-1 cells. Description: C666-1 Cell Viability Assay (Resazurin cytotoxicity test). It is filed as cell-based. Conditions: Homo sapiens, C6661, EB virus-positive C666-1 cells, 72 hours treatment, 100-0.78 micromole/L, read-out: Inhibitory Rate. A digest of the protocol: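 EBV-positive nasopharyngeal carcinoma C666-1 cells, 5×10^3 per well, were grown 24 h, then exposed to compound for 72 h at 37 °C (8-point two-fold dilutions, final 100–0.78 µM). Viability was read by resazurin reduction fluorescence after 3 h; EC50 came from the fitted inhibition curve.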
For orientation: Resazurin is reduced to fluorescent resorufin, in cell work by metabolically active cells.
`O=C(Cc1cccnc1)Nc1ccc(OC2CN(c3cccc(C(=O)O)c3)C2)cc1` [Example 49a, 3-(3-(4-(2-(pyridin-3-yl)acetamido)phenoxy)azetidin-1-yl) benzoic acid]: the EC50 fell in the range of 10000 to 50000 nM. For `COC(=O)c1cccc(N2CC(Oc3ccc(NC(=O)Nc4cccnc4)cc3)C2)c1` [Example 50, methyl 3-(3-(4-(3-(pyridin-3-yl)ureido)phenoxy)azetidin-1-yl) benzoate] the value was 1000 to 10000 nM.

For the compound `O=C(Nc1ccc(OC2CN(c3cccc(C(=O)O)c3)C2)cc1)Nc1cccnc1` [Example 50a, 3-(3-(4-(3-(pyridin-3-yl)ureido)phenoxy)azetidin-1-yl) benzoic acid], the EC50 lay in the range of 1000 to 10000 nM. For the compound `COC(=O)c1cccc(N2CC(Oc3ccc(NC(=O)Cc4cccnc4)cc3)C2)c1-n1cccc1` [Example 51, methyl 3-(3-(4-(2-(pyridin-3-yl)acetamido)phenoxy)azetidin-1-yl)-2-(1H-pyrrol-1-yl) benzoate], the EC50 was less than 1000 nM.

With `O=C(Cc1cccnc1)Nc1ccc(OC2CN(c3cccc(C(=O)O)c3-n3cccc3)C2)cc1` [Example 51a, 3-(3-(4-(2-(pyridin-3-yl)acetamido)phenoxy)azetidin-1-yl)-2-(1H-pyrrol-1-yl) benzoic acid], the EC50 was less than 1000 nM.

For `COC(=O)c1cccc(N2CC(Oc3ccc(NC(=O)Cc4cccnc4)c(F)c3)C2)c1-n1cccc1` [Example 52, methyl 3-(3-(3-fluoro-4-(2-(pyridin-3-yl)acetamido)phenoxy)azetidin-1-yl)-2-(1H-pyrrol-1-yl) benzoate], the EC50 is less than 1000 nM. Then `O=C(Cc1cccnc1)Nc1ccc(OC2CN(c3cccc(C(=O)O)c3-n3cccc3)C2)cc1F` [Example 52a, 3-(3-(3-fluoro-4-(2-(pyridin-3-yl)acetamido)phenoxy)azetidin-1-yl)-2-(1H-pyrrol-1-yl) benzoic acid], with less than 1000 nM.

`COC(=O)c1cccc(N2CC(Oc3ccc(NC(=O)Cc4cccnc4)cc3)C2)c1C` [Example 53, methyl 2-methyl-3-(3-(4-(2-(pyridin-3-yl)acetamido)phenoxy)azetidin-1-yl) benzoate]: the EC50 was 10000 to 50000 nM. `Cc1c(C(=O)O)cccc1N1CC(Oc2ccc(NC(=O)Cc3cccnc3)cc2)C1` [Example 53a, 2-methyl-3-(3-(4-(2-(pyridin-3-yl)acetamido)phenoxy)azetidin-1-yl) benzoic acid]: the EC50 fell in the range of 10000 to 50000 nM. Then `COC(=O)c1cccc(N2CC(Oc3ccc(NC(=O)Cc4cccnc4)c(F)c3)C2)c1-c1ccccc1` [Example 54, methyl 6-(3-(3-fluoro-4-(2-(pyridin-3-yl)acetamido)phenoxy)azetidin-1-yl)-[1,1′-biphenyl]-2-carboxylate], with 1000 to 10000 nM. Consider `O=C(Cc1cccnc1)Nc1ccc(OC2CN(c3cccc(C(=O)O)c3-c3ccccc3)C2)cc1F` [Example 54a, 6-(3-(3-fluoro-4-(2-(pyridin-3-yl)acetamido)phenoxy)azetidin-1-yl)-[1,1′-biphenyl]-2-carboxylic acid], for which the EC50 lay in the range of 1000 to 10000 nM. Turning to `COC(=O)c1cccc(N2CC(Oc3ccc(NC(=O)Cc4cccnc4)cc3)C2)c1Cl` [Example 55, methyl 2-chloro-3-(3-(4-(2-(pyridin-3-yl)acetamido)phenoxy)azetidin-1-yl) benzoate], the EC50 lay within 1000 to 10000 nM. For `O=C(Cc1cccnc1)Nc1ccc(OC2CN(c3cccc(C(=O)O)c3Cl)C2)cc1` [Example 55a, 2-chloro-3-(3-(4-(2-(pyridin-3-yl)acetamido)phenoxy)azetidin-1-yl) benzoic acid] the value was 10000 to 50000 nM. As to `COC(=O)c1cccc(N2CC(Oc3ccc(Cn4ccnc4)cc3)C2)c1-n1cccc1` [Example 56, methyl 3-(3-(4-((1H-imidazol-1-yl)methyl)phenoxy)azetidin-1-yl)-2-(1H-pyrrol-1-yl) benzoate], the EC50 was 10000 to 50000 nM. Then `O=C(O)c1cccc(N2CC(Oc3ccc(Cn4ccnc4)cc3)C2)c1-n1cccc1` [Example 56a, 3-(3-(4-((1H-imidazol-1-yl)methyl)phenoxy)azetidin-1-yl)-2-(1H-pyrrol-1-yl) benzoic acid], with 10000 to 50000 nM; and `COC(=O)c1cccc(C#Cc2ccc(NC(=O)Nc3cccnc3)cc2)c1-c1cccc(OCCO)c1` [Example 57, methyl 3′-(2-hydroxyethoxy)-6-((4-(3-(pyridin-3-yl)ureido)phenyl)ethynyl)-[1,1′-biphenyl]-2-carboxylate], with 1000 to 10000 nM; and `COC(=O)c1cccc(C#Cc2ccc(NC(=O)Nc3cccnc3)cc2)c1-c1ccccc1` [Example 58, methyl 6-((4-(3-(pyridin-3-yl)ureido)phenyl)ethynyl)-[1,1′-biphenyl]-2-carboxylate], with less than 1000 nM. On to `O=C(Nc1ccc(C#Cc2cccc(C(=O)O)c2-c2ccccc2)cc1)Nc1cccnc1` [Example 58a, 6-((4-(3-(pyridin-3-yl)ureido)phenyl)ethynyl)-[1,1′-biphenyl]-2-carboxylic acid], for which the EC50 is 1000 to 10000 nM. Turning to `O=C(Nc1ccc(C#Cc2cccc(C(=O)NO)c2-c2ccccc2)cc1)Nc1cccnc1` [Example 58b, N-hydroxy-6-((4-(3-(pyridin-3-yl)ureido)phenyl)ethynyl)-[1,1′-biphenyl]-2-carboxamide], the EC50 is less than 1000 nM.

With `COC(=O)c1cccc(C#Cc2ccc(NC(=O)Nc3cccnc3)cc2)c1-c1ccc2cc[nH]c2c1` [Example 59, methyl 2-(1H-indol-6-yl)-3-((4-(3-(pyridin-3-yl)ureido)phenyl)ethynyl) benzoate], the EC50 is less than 1000 nM. Take `O=C(Nc1ccc(C#Cc2cccc(C(=O)O)c2-c2ccc3cc[nH]c3c2)cc1)Nc1cccnc1` [Example 59a, 2-(1H-indol-6-yl)-3-((4-(3-(pyridin-3-yl)ureido)phenyl)ethynyl) benzoic acid]: the EC50 is less than 1000 nM.

With `COC(=O)c1cccc(C#Cc2ccc(CC(=O)Nc3cccnc3)cc2)c1-c1ccccc1` [Example 60, methyl 6-((4-(2-oxo-2-(pyridin-3-ylamino)ethyl)phenyl)ethynyl)-[1,1′-biphenyl]-2-carboxylate], the EC50 was less than 1000 nM.

Regarding `O=C(Cc1ccc(C#Cc2cccc(C(=O)O)c2-c2ccccc2)cc1)Nc1cccnc1` [Example 60a, 6-((4-(2-oxo-2-(pyridin-3-ylamino)ethyl)phenyl)ethynyl)-[1,1′-biphenyl]-2-carboxylic acid], the EC50 is less than 1000 nM. Then `O=C(Cc1ccc(C#Cc2cccc(C(=O)NO)c2-c2ccccc2)cc1)Nc1cccnc1` [Example 60b, N-hydroxy-6-((4-(2-oxo-2-(pyridin-3-ylamino)ethyl)phenyl)ethynyl)-[1,1′-biphenyl]-2-carboxamide], with less than 1000 nM; and `COC(=O)c1cccc(C#Cc2ccc(CC(=O)Nc3cccnc3)cc2)c1-c1ccc2cc[nH]c2c1` [Example 61, methyl 2-(1H-indol-6-yl)-3-((4-(2-oxo-2-(pyridin-3-ylamino)ethyl)phenyl)ethynyl) benzoate], with less than 1000 nM.

Consider `O=C(Cc1ccc(C#Cc2cccc(C(=O)O)c2-c2ccc3cc[nH]c3c2)cc1)Nc1cccnc1` [Example 61a, 2-(1H-indol-6-yl)-3-((4-(2-oxo-2-(pyridin-3-ylamino)ethyl)phenyl)ethynyl) benzoic acid], for which the EC50 is less than 1000 nM. Regarding `COC(=O)c1cccc(C#Cc2ccc(NC(=O)Cc3cccnc3)cc2)c1-c1ccccc1` [Example 62, methyl 6-((4-(2-(pyridin-3-yl)acetamido)phenyl)ethynyl)-[1,1′-biphenyl]-2-carboxylate], the EC50 is less than 1000 nM. Then `O=C(Cc1cccnc1)Nc1ccc(C#Cc2cccc(C(=O)O)c2-c2ccccc2)cc1` [Example 62a, 6-((4-(2-(pyridin-3-yl)acetamido)phenyl)ethynyl)-[1,1′-biphenyl]-2-carboxylic acid], with less than 1000 nM; and `COC(=O)c1cccc(C#Cc2ccc(NC(=O)Nc3cccnc3)cc2)c1-c1cccc(O)c1` [Example 63, methyl 3′-hydroxyl-6-((4-(3-(pyridin-3-yl)ureido)phenyl)ethynyl)-[1,1′-biphenyl]-2-carboxylate], with less than 1000 nM.
